The structures appear in SMILES notation. Where a name gives a salt, the structure may show the parent alone. Read-outs that look alike come from different tables or passages of the source.

For 18 compounds, IC50 and inhibition in vivo results are on record in patent publication US20140343017A1, “PYRROLE COMPOUND” (Kabushiki Kaisha Yakult Honsha, priority 2012, published 2014).

Experiment [1] relates to human colorectal cancer HCT116 cells. Nature of the experiment: Inhibitory effect on growth of human cancer cells (in vitro), WST-8. The class given is cell-based. Conditions: 96 hours culture. A digest of the protocol:
(§1)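 Cells seeded at 1000 cells/well in RPMI1640 with 10% FBS, compounds added after overnight culture, then 96 h exposure. Viability by WST-8, about 1 h at 37 °C, 5% CO2, absorbance read at 450 nm.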

The test system of experiment [2] is human colorectal cancer HT-29 cells. Described as above. Type of experiment: cell-based. Conditions: 96 hours culture, read-out: IC50 (nM) HT29. Put shortly: as §1
The subject of experiment [3] is human non-small cell lung cancer A549 cells. The description is as above. The class given is cell-based. Conditions: 96 hours culture. Put shortly:
as §1

Experiment [4] concerns human lung cancer NCI-H460 xenograft tumor. Nature of the experiment: Antitumor effect on growth of human lung cancer NCI-H460 xenograft tumor (in vivo). More on the design: species or system BALB/c nude mice. As to conditions: Mus musculus, NCI-H460, iv, 528 h, tail vein, excised tumor weight Day 22, read-out: Inhibition Rate (%). As to the method:
Each compound of the present invention was studied for its in vivo antitumor effect using human lung cancer NCI-H460 cell-transplanted mice. An NCI-H460 cell suspension containing 2×10^6 cells was subcutaneously transplanted in an amount of 0.1 mL/mouse to the left groin areas of 6-week-old male BALB/c nude mice. The mice were further raised for approximately 1 week to 10 days and divided into groups (4 mice per group) having equal estimated tumor volumes at the point in time when the tumor size reached approximately 100 to 200 mm^3 (Day 1). Each administration sample was administered at a dose of 10 mL/kg into the tail vein of the mice. The dose and administration schedule of each compound were as described in Table 3. At Day 22, tumor was excised from each mouse. The tumor growth inhibition rate (IR: Inhibition Rate) was calculated from the weight of the excised tumor according to the expression shown below. The Dunnett's test was used in the significant difference test.
Tumor growth inhibition rate (Inhibition Rate, %)=(1−(Excised tumor weight of the administration group)/(Excised tumor weight of the control group))×100
A general note: In xenograft studies the graft and the host belong to different species.

Setting [5] is: Days 1, 3, 5, 8, 10, 12, 15, 17, 19.
Setting [6] is: Days 1, 3, 8, 10, 12, 15, 17, 19.

As usually defined, the IC50 is the concentration that gives 50% inhibition. Consider `CCn1nnc(-c2[nH]c(C)c(C(=O)c3cccc(Br)c3)c2C)n1` [Compound 97, (3-bromophenyl)(5-(2-ethyl-2H-tetrazol-5-yl)-2,4-dimethyl-1H-pyrrol-3-yl)methanone], for which the IC50 in experiment [1] (Homo sapiens, HCT-116, 96 h) was determined as 4.1 nM; in experiment [2] (Homo sapiens, HT-29, 96 h), 3.5 nM; in experiment [3] (Homo sapiens, A549, 96 h) it was 2.4 nM. For the same compound, the inhibition in vivo at 30 mg/kg in experiment [4] (30 mg/kg, Days 1, 3, 5, 8, 10, 12, 15, 17, 19) was 31.2%.
On to `COc1cccc(C(=O)c2c(C)[nH]c(-c3nnn(CCO)n3)c2C)c1` [Compound 107], for which the IC50 in experiment [1] (Homo sapiens, HCT-116, 96 h) is 27.4 nM; in experiment [2] (Homo sapiens, HT-29, 96 h), 16.1 nM; in experiment [3] (Homo sapiens, A549, 96 h), 54.9 nM. Further, the inhibition in vivo at 25 mg/kg in experiment [4] (setting [5]) turned out to be 32.6%.
With `CCn1nnc(-c2[nH]c(C)c(C(=O)c3ccc(OC)c(Br)c3)c2C)n1` [Compound 109, (3-bromo-4-methoxyphenyl)(5-(2-ethyl-2H-tetrazol-5-yl)-2,4-dimethyl-1H-pyrrol-3-yl)methanone], the IC50 was determined as 2 nM in experiment [1] (Homo sapiens, HCT-116, 96 h); 1 nM in experiment [2] (Homo sapiens, HT-29, 96 h); 9.2 nM in experiment [3] (Homo sapiens, A549, 96 h). The inhibition in vivo at 25 mg/kg in experiment [4] (setting [6]) came to 29%.
In the case of `CCc1nnc(-c2[nH]c(C)c(C(=O)c3cccc(Br)c3)c2C)o1` [Compound 173, (3-bromophenyl)(5-(5-ethyl-1,3,4-oxadiazol-2-yl)-2,4-dimethyl-1H-pyrrol-3-yl)methanone], the IC50 worked out at 1.1 nM in experiment [1] (Homo sapiens, HCT-116, 96 h); 1 nM in experiment [2] (Homo sapiens, HT-29, 96 h); 5.1 nM in experiment [3] (Homo sapiens, A549, 96 h). For the same compound, in experiment [4] (setting [5]), the inhibition in vivo at 10 mg/kg came to 40.2%.
Turning to `CCc1nnc(-c2[nH]c(C)c(C(=O)c3cccc(OC)c3)c2C)o1` [Compound 193, (5-(5-ethyl-1,3,4-oxadiazol-2-yl)-2,4-dimethyl-1H-pyrrol-3-yl) (3-methoxyphenyl)methanone], the IC50 is 2.5 nM in experiment [1] (Homo sapiens, HCT-116, 96 h); 2.1 nM in experiment [2] (Homo sapiens, HT-29, 96 h); 4.3 nM in experiment [3] (Homo sapiens, A549, 96 h). The inhibition in vivo at 10 mg/kg in experiment [4] (setting [6]) was 33.9%.
`COc1ccc(Br)cc1C(=O)c1c(C)[nH]c(-c2nnc(C3CC3)o2)c1C` [Compound 240, (5-bromo-2-methoxyphenyl)(5-(5-cyclopropyl-1,3,4-oxadiazol-2-yl)-2,4-dimethyl-1H-pyrrol-3-yl)methanone]: the IC50 in experiment [1] (Homo sapiens, HCT-116, 96 h) came to 1.9 nM; in experiment [2] (Homo sapiens, HT-29, 96 h), 1.1 nM; in experiment [3] (Homo sapiens, A549, 96 h) it was 2.1 nM. The inhibition in vivo at 12.5 mg/kg in experiment [4] (12.5 mg/kg, Days 1, 3, 5, 8, 10, 12, 15, 17, 19) was determined as 33.2%.
With `COc1ccc(C(=O)c2c(C=O)[nH]c(-c3nnc(C4CC4)o3)c2C)cc1Br` [Compound 263, 3-(3-bromo-4-methoxybenzoyl)-5-(5-cyclopropyl-1,3,4-oxadiazol-2-yl)-4-methyl-1H-pyrrole-2-carboaldehyde], the IC50 in experiment [1] (Homo sapiens, HCT-116, 96 h) stood at 53.8 nM; in experiment [2] (Homo sapiens, HT-29, 96 h), 32.5 nM; in experiment [3] (Homo sapiens, A549, 96 h) it was 36.5 nM. Also, the inhibition in vivo at 50 mg/kg in experiment [4] (50 mg/kg, Days 1, 3, 5, 8, 10, 12, 15, 17, 19) turned out to be 59.6%.
On to `COc1ccc(C(=O)c2c(CO)[nH]c(-c3nnc(C4CC4)o3)c2C)cc1Br` [Compound 266, (3-bromo-4-methoxyphenyl)(5-(5-cyclopropyl-1,3,4-oxadiazol-2-yl)-2-(hydroxymethyl)-4-methyl-1H-pyrrol-3-yl)methanone], for which the IC50 stood at 1.6 nM in experiment [1] (Homo sapiens, HCT-116, 96 h); 2.7 nM in experiment [2] (Homo sapiens, HT-29, 96 h); 4.7 nM in experiment [3] (Homo sapiens, A549, 96 h). Moreover, the inhibition in vivo at 20 mg/kg in experiment [4] (setting [5]) was found to be 39.4%.
In the same order, the values of `COc1ccc(C(=O)c2c(C(F)F)[nH]c(-c3nnc(C4CC4)o3)c2C)cc1Br` [Compound 267, (3-bromo-4-methoxyphenyl) (5-(5-cyclopropyl-1,3,4-oxadiazol-2-yl)-2-(difluoromethyl)-4-methyl-1H-pyrrol-3-yl)methanone] are 39 nM, 10.7 nM, 13 nM and 35.6%.
As for `COc1ccc(C(=O)c2c(C(C)O)[nH]c(-c3nnc(C4CC4)o3)c2C)cc1Br` (stereo not shown) [Compound 268, (3-bromo-4-methoxyphenyl)(5-(5-cyclopropyl-1,3,4-oxadiazol-2-yl)-2-(1-hydroxyethyl)-4-methyl-1H-pyrrol-3-yl)methanone], the IC50 was found to be 2.5 nM in experiment [1] (Homo sapiens, HCT-116, 96 h); 5.2 nM in experiment [2] (Homo sapiens, HT-29, 96 h); 4.1 nM in experiment [3] (Homo sapiens, A549, 96 h). Besides, the inhibition in vivo at 20 mg/kg in experiment [4] (setting [5]) was 41.2%.
As to `CNC(=O)c1[nH]c(-c2nnn(CCN)n2)c(C)c1C(=O)c1cccc(Br)c1` [Compound 282, 5-(2-(2-aminoethyl)-2H-tetrazol-5-yl)-3-(3-bromobenzoyl)-N,4-dimethyl-1H-pyrrole-2-carboxamide], the IC50 amounted to 754 nM in experiment [1] (Homo sapiens, HCT-116, 96 h); 315 nM in experiment [2] (Homo sapiens, HT-29, 96 h); 525 nM in experiment [3] (Homo sapiens, A549, 96 h).
In the same order, the values of `Cc1c(-c2nnn(CCO)n2)[nH]c(C(C)(C)O)c1C(=O)c1cccc(Br)c1` [Compound 285, (3-bromophenyl)(5-(2-(2-hydroxyethyl)-2H-tetrazol-5-yl)-2-(2-hydroxypropan-2-yl)-4-methyl-1H-pyrrol-3-yl)methanone] are 246 nM, 598 nM and 595 nM.
In the same order, the values of `Cc1[nH]c(-c2nnn(CCO)n2)c(Br)c1C(=O)c1cccc(Br)c1` [Compound 288, (4-bromo-5-(2-(2-hydroxyethyl)-2H-tetrazol-5-yl)-2-methyl-1H-pyrrol-3-yl)(3-bromophenyl)methanone] are 7.1 nM, 6.7 nM and 8.2 nM.
On to `Cc1[nH]c(-c2nnn(CCN)n2)c(Br)c1C(=O)c1cccc(Br)c1` [Compound 290, (5-(2-(2-aminoethyl)-2H-tetrazol-5-yl)-4-bromo-2-methyl-1H-pyrrol-3-yl)(3-bromophenyl)methanone], for which the IC50 in experiment [1] (Homo sapiens, HCT-116, 96 h) is 184 nM; in experiment [2] (Homo sapiens, HT-29, 96 h) it was 123 nM; in experiment [3] (Homo sapiens, A549, 96 h), 167 nM.
In the same order, the values of `CNC(=O)c1[nH]c(-c2nnn(CCOC(C)=O)n2)c(C)c1C(=O)c1ccc(OC)c(Br)c1` [Compound 295, 2-(5-(4-(3-bromo-4-methoxybenzoyl)-3-methyl-5-(methylcarbamoyl)-1H-pyrrol-2-yl)-2H-tetrazol-2-yl)ethyl acetate] are 957 nM, 460 nM and 509 nM.
`CCn1nnc(-c2[nH]c(C)c(C(=O)c3cccc(OCCN)c3)c2C)n1` [Compound 296, (3-(2-aminoethoxy)phenyl)(5-(2-ethyl-2H-tetrazol-5-yl)-2,4-dimethyl-1H-pyrrol-3-yl)methanone hydrochloride]: the IC50 in experiment [1] (hydrochloride) amounted to 208 nM; in experiment [2] (hydrochloride), 198 nM; in experiment [3] (hydrochloride), 637 nM.
In the same order, the values of `Cc1[nH]c(-c2nnn(CCOC(=O)CN)n2)c(C)c1C(=O)c1cccc(Br)c1` [Compound 297, 2-(5-(4-(3-bromobenzoyl)-3,5-dimethyl-1H-pyrrol-2-yl)-2H-tetrazol-2-yl)ethyl 2-aminoacetate hydrochloride] are 7.3 nM, 8.2 nM and 12.2 nM.
In the same order, the values of `CCn1nnc(-c2[nH]c(C)c(C(=O)c3ccc(OCCN)c(Br)c3)c2C)n1` [Compound 302, (4-(2-aminoethoxy)-3-bromophenyl)(5-(2-ethyl-2H-tetrazol-5-yl)-2,4-dimethyl-1H-pyrrol-3-yl)methanone hydrochloride] are 35 nM, 33 nM and 47.4 nM.
